One series deals with T1, Cytochrome P450 1A2 (Homo sapiens, UniProt P05177).
T1 sequence (P05177 whole entry): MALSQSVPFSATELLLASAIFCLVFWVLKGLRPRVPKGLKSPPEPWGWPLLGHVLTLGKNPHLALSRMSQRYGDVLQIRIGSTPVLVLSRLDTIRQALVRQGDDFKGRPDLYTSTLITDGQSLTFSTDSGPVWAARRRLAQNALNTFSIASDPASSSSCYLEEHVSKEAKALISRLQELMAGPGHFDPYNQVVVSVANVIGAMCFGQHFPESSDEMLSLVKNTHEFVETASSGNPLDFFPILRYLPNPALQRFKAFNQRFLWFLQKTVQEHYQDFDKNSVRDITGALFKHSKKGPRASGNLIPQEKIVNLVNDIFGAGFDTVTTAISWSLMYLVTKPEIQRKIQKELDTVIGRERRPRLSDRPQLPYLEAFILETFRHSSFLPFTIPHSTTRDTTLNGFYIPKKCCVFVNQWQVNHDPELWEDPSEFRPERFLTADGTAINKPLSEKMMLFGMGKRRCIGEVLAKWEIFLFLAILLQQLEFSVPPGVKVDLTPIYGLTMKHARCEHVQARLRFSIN
In words: Inhibition of CYP1A2 (unknown origin). In kind it is ADME.

Series [1] in a line: Solubility of compound in pH 6.8 with TCA. Type of series: physicochemical.
Series [2] has as its target T2, Long-chain-fatty-acid--CoA ligase 6 (Homo sapiens, UniProt Q9UKU0).
T2 sequence (Q9UKU0 whole entry): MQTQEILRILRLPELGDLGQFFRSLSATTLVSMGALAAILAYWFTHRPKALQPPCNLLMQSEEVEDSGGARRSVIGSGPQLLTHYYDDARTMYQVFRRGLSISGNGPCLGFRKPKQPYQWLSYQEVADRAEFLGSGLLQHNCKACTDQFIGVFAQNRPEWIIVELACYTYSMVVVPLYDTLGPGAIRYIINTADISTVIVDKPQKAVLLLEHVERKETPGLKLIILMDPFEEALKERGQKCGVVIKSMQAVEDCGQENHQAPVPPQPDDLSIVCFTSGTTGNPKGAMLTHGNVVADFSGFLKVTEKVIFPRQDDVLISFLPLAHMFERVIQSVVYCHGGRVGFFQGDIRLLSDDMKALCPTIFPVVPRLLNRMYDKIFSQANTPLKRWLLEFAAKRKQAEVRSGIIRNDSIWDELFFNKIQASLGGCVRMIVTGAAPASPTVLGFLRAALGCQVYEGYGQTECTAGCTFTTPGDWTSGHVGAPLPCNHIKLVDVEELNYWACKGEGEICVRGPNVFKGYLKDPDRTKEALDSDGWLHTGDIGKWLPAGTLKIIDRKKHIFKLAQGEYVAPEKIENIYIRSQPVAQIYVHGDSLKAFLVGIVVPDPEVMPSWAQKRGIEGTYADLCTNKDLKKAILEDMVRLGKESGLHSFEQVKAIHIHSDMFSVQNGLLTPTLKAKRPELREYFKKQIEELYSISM
In words: Inhibition of recombinant human ACSL6 assessed as reduction in […] prodution incubated for 60 mins in presence of Coenzyme A, ATP and MgCl2 by MALDI-TOF MS analysis.

The nature of series [3]: Volume of distribution at steady state in rat at 0.5 mg/kg, iv. Type of series: ADME, organism-based. Conditions: in vivo, read-out: Vdss.
The nature of series [4]: Tmax in rat at 1 mg/kg, po. In kind it is ADME, organism-based. Conditions: in vivo.
Series [5] is described as follows: AUC in rat at 1 mg/kg, po. In kind it is ADME, organism-based. On the set-up: dose 1 mg/kg. Conditions: in vivo.
For series [6], the target named is T3, Long-chain-fatty-acid--CoA ligase 5 (Homo sapiens, UniProt Q9ULC5).
T3 sequence (Q9ULC5 whole entry): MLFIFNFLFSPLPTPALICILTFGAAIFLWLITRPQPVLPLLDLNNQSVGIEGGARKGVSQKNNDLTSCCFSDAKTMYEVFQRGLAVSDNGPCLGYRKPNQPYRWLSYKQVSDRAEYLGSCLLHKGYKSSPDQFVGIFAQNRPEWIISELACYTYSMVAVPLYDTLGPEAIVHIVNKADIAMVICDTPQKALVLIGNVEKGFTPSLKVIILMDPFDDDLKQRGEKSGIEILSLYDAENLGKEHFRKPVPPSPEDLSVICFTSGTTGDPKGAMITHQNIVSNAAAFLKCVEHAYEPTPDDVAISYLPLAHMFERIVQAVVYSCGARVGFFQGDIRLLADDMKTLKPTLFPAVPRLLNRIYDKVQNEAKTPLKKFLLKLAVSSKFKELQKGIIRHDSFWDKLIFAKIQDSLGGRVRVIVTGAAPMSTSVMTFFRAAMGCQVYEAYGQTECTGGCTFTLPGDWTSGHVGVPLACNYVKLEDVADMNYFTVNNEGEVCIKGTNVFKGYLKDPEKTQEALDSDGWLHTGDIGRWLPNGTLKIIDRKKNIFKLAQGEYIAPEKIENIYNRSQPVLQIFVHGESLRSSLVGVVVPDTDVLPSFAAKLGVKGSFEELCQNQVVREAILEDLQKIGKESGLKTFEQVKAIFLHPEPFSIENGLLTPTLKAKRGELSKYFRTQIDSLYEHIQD
In words: Inhibition of recombinant human ACSL5 assessed as reduction in […] prodution incubated for 90 mins in presence of Coenzyme A, ATP and MgCl2 by MALDI-TOF MS analysis.

The subject of the next series is Mus musculus. In words: In vivo inhibition of ACSL1 in mouse assessed as reduction in acyl-coA production in liver administered orally using palmitic acid as substrate and measured after 17 hrs. Type of series: functional, organism-based. Conditions: dose 0.3-1 mg/kg.

Converted amounts (≈) assume the structure as drawn.

The results in this text go back to ChEMBL document CHEMBL4673346, “Discovery of a benzimidazole series as the first highly potent and selective ACSL1 inhibitors” (Bioorg Med Chem Lett, 2021).

As a reminder, the IC50 is the midpoint of a concentration-inhibition curve. What is called solubility is the dissolved amount per volume that the medium holds. A low value points to a poorly soluble substance. For orientation: Tmax means the time from dosing to the highest level. By AUC is commonly meant concentration integrated over time. Read a low AUC as low exposure.

Regarding `Cc1cccc(Cc2nc3cc(O[C@H]4CC[C@@H](C(=O)O)CC4)ccc3n2C)c1`, the figures for the IC50 (against Cytochrome P450 1A2; in series [2]; in series [6]) were > 20 µM, > 200 µM and > 200 µM, respectively. The same compound gave a solubility in series [1] of 24 µg/mL (≈ 63.4 µM). For the same compound, in series [3], the Vd was 0.38 L/kg. In series [4], the Tmax stood at 2.5 h. The compound further registered an area under the curve (AUC) in series [5] of 11800 ng·h/mL. In addition, in the series with Mus musculus, the inhibition result is “Dose-dependent effect”.
